Read-outs that look alike come from different tables or passages of the source. One block for each molecule: values may come before it.
Target: alanyl aminopeptidases (APN) (Homo sapiens, UniProt P15144)
Test: Inhibition of alanyl aminopeptidase enzymatic activity, fluorogenic substrate (Ala)2-rhodamine 110
Assay type: biochemical
Procedure: The inhibition characteristics measured are referred to as IC-50 values or ID50 values (the latter marked with “*”) for said enzyme. The enzymatic activity was determined by means of the fluorogenic substrate/product (Ala)2-rhodamine 110.

[1] = Table 3, unstarred values, read-out: IC50APN
[2] = Table 4, unstarred values, read-out: IC50APN
[3] = Table 8, unstarred values, read-out: IC50APN
[4] = Table 9, unstarred values, read-out: IC50APN
[5] = Table 1, unstarred values, read-out: IC50APN

Sequence of alanyl aminopeptidases (APN) (P15144 whole entry, species assumed): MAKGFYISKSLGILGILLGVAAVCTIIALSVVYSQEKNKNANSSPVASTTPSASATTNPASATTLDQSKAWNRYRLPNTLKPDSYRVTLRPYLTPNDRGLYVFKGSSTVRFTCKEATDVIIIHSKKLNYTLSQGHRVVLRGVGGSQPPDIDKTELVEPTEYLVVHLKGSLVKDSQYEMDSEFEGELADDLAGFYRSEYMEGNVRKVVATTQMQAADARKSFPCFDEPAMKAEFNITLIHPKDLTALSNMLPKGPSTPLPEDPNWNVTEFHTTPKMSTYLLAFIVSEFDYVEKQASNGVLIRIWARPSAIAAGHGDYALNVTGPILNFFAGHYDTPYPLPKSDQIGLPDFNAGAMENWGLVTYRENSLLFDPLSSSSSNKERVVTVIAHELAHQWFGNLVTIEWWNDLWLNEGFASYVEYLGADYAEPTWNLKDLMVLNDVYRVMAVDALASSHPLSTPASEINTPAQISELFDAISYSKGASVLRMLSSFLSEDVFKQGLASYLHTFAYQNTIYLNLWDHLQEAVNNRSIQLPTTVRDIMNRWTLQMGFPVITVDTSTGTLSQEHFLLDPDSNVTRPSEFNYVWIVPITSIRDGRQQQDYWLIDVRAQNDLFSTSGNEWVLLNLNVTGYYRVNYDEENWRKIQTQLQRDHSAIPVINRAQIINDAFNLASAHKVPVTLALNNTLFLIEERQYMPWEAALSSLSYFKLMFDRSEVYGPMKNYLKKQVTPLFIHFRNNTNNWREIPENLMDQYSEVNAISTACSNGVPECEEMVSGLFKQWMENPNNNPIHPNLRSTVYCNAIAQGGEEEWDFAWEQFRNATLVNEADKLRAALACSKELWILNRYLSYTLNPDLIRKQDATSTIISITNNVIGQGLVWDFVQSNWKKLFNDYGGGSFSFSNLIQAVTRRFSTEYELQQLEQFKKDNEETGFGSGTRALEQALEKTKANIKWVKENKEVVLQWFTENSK

IC50 (Table 7, read-out: IC50APN): 14.1 µM
Compound: CSCCC1NC(=S)N(Cc2ccccc2)C1=O (stereo not shown) [A7.008]

IC50 [1]: 25.8 µM
Compound: CCOc1ccc(Br)cc1C(=O)N/N=C/c1ccco1 [A3.155]

IC50 [2]: 13.2 µM
Compound: COc1cc(Br)cc(Br)c1OCC(=O)N/N=C/c1cc(Br)c(O)c(O)c1Br [A4.024]

IC50 [1]: 14.6 µM
Compound: N/C(=N\N=C\c1ccco1)c1nonc1N [A3.068]

IC50 [2]: 12.5 µM
Compound: COCc1c(C(=O)N/N=C/c2ccc(C)o2)nnn1-c1nonc1N [A4.022]

IC50 [2]: 9.8 µM
Compound: Cc1ccc(/C=N/NC(=O)c2cccc(NC(=O)c3ccc(F)cc3)c2)o1 [A4.014]

IC50 [1]: 34 µM
Compound: CC(C)C1N=C(Cc2cccnc2)N(CCCN2CCCC2=O)C1C(=O)NCc1ccccc1 (stereo not shown) [A3.205]

IC50 [1]: 52.1 µM
Compound: CCOC(=O)c1cc(-c2ccc(/C=C3/C(=O)NC(=O)C(C#N)=C3C)o2)ccc1Cl [A3.268]

IC50 [3]: 22.6 µM
Compound: Cn1c(=O)[nH]c2nnc(-c3cccs3)nc2c1=O [A8.023]

IC50 (Table 11, read-out: IC50APN): 238 µM
Compound: COC(=O)c1cc(C(=O)NC2CCSC2=O)cc([N+](=O)[O-])c1 (stereo not shown) [A11.036]

IC50 [1]: 32.1 µM
Compound: Cc1ccc(C(=O)N/C(=C\c2ccco2)C(=O)N2CCCN(C)CC2)cc1C [A3.194]

IC50 [1]: 23.7 µM
Compound: O=C(O)c1ccc2c(c1)C(=O)/C(=C\c1ccco1)C2=O [A3.144]

IC50 [3]: 13.5 µM
Compound: COC(=O)N/N=C(C)\C=C\c1ccco1 [A8.011]

IC50 [4]: 19.2 µM
Compound: CN1C/C(=C/c2ccco2)C(=O)/C(=C/c2ccco2)C1 [A9.046]

IC50 [4]: 28 µM
Compound: Cc1ccc(Cn2c(SCCC(=O)O)nc3c2c(=O)n(C)c(=O)n3C)cc1 [A9.070]

IC50 (Table 12, read-out: IC50APN): 21.1 µM
Compound: O=C(N/C(=C\c1ccco1)C(=O)N1CCC(O)CC1)c1ccccc1 [A12.038]

IC50 (Table 11, read-out: IC50APN): 33.2 µM
Compound: NCCCCCC(=O)C[N+](=O)[O-] [A11.025]

IC50 [5]: 7.3 µM
Compound: O=C(CCOC(c1ccccc1)c1ccc(Cl)cc1)NO (stereo not shown) [A1.005]

Compound: Cc1cccc[n+]1OC(=O)N1CCCCC1 [A9.118]
IC50 (Table 9, starred values = ID50, read-out: ID50 APN (values marked with *)): 96.7 µM

IC50 (Table 13, read-out: IC50APN): 15.2 µM
Compound: COC(=O)c1cc(-c2ccc(/C=C3\C(=O)N(CCCO)C(=O)C(C#N)=C3C)o2)ccc1Cl [A13.006]

IC50 [4]: 13.1 µM
Compound: CC(C)COc1ccc(C(=O)N/C(=C\c2ccco2)C(=O)N2CCOCC2)cc1 [A9.027]

IC50 [2]: 13.9 µM
Compound: O=C(COc1ccc2ccccc2c1)N/N=C/c1ccco1 [A4.029]

IC50 [1]: 36.3 µM
Compound: COc1cc(Br)ccc1OCC(=O)N/N=C(C)/C=C/c1ccco1 [A3.217]

IC50 [1]: 16.6 µM
Compound: CC(C)c1cc(C(=O)N/N=C/c2ccco2)[nH]n1 [A3.080]

IC50 [1]: 26.1 µM
Compound: Cn1c(=O)[nH]c2nnc(-c3cccs3)nc2c1=O [A3.157]

IC50 [1]: 31.1 µM
Compound: Cc1cccc(C)c1NC1C(c2ccccc2NC(=O)Nc2ccc(OC(F)(F)F)cc2)N=C2C(C(=O)NCC(C)C)=CC=CN21 (stereo not shown) [A3.190]

IC50 (Table 12, read-out: IC50APN): 14.1 µM
Compound: O=C(CCCCCN1C(=O)c2cccc3cccc(c23)C1=O)NO [A12.028]

IC50 (Table 6, read-out: IC50APN): 21.6 µM
Compound: O=C(Nc1ccc(N=Nc2ccccc2)cc1)c1ccc(S(=O)(=O)N2CCCC2)cc1 [A6.012]

IC50 [2]: 20.9 µM
Compound: O=C(N/N=C/c1ccco1)c1cc(-c2ccco2)n[nH]1 [A4.058]

IC50 [1]: 20.5 µM
Compound: COc1cc(Br)ccc1OCC(=O)N/N=C/c1cc(Br)c(O)c(O)c1Br [A3.109]

IC50 [1]: 19.2 µM
Compound: CN1C/C(=C/c2ccco2)C(=O)/C(=C/c2ccco2)C1 [A3.098]

IC50 (Table 11, read-out: IC50APN): 29.3 µM
Compound: C=CCN1C(=O)C(C#N)=C(C)/C(=C\c2ccc(-c3cc(C)c(C)cc3[N+](=O)[O-])o2)C1=O [A11.020]

IC50 [2]: 14.6 µM
Compound: N/C(=N\N=C\c1ccco1)c1nonc1N [A4.032]

IC50 [1]: 36.6 µM
Compound: Cc1c(Cl)cccc1NC(=O)CCC(=O)N/N=C/c1ccco1 [A3.220]

IC50 [1]: 19.8 µM
Compound: O=C(N/N=C/c1cc(Br)cc(Br)c1OC(=O)c1ccccc1)/C(=C/c1ccc2c(c1)OCO2)NC(=O)c1ccccc1 [A3.101]

IC50 [1]: 58.3 µM
Compound: C/C(=N\NC(=O)c1cc(-c2ccccc2)n[nH]1)c1ccco1 [A3.278]

IC50 [1]: 17.9 µM
Compound: Cc1ccc(NC(=O)/C(=C\c2ccco2)NC(=O)c2ccccc2Cl)cc1 [A3.086]

IC50 [2]: 15.6 µM
Compound: CC(C)C/C=N/NC(=O)c1ccc([N+](=O)[O-])cc1Cl [A4.035]

IC50 [5]: 80.6 µM
Compound: N#CCCCCCCCCC(=O)NO [A1.015]

IC50 [1]: 18.2 µM
Compound: CC(=O)c1cccc(-c2ccc(/C=C3/C(=O)N(CCCO)C(=O)C(C#N)=C3C)o2)c1 [A3.089]

Reference: patent US20070037752A1, “Novel alanyl-amino peptidase inhibitors for functionally influencing different cells and treating immunological, inflammatory, neuronal, and other diseases” (priority 2003, published 2007)
